According to ChEMBL document CHEMBL5385912, “Macrocycles and Acyclic Cucurbit[n]urils as Pseudo[2]catenane Partners for Long-Acting Neuromuscular Blocks and Rapid Reversal In Vivo” (J Med Chem, 2024):
Values belong to the compound of their own block, whether it stands above or below them. Calls of active or inactive are those of the source. No cut-off for these calls is given here.

How the values were obtained:
Rattus norvegicus [1] = organism: Rattus norvegicus; experiment: Neuromuscular blocking in Sprague-Dawley rat assessed as inhibition of electrical stimulation induced twitch amplitude; format: functional
Rattus norvegicus [2] = experiment: Neuromuscular blocking in Sprague-Dawley rat assessed as inhibition of electrical stimulation induced twitch amplitude at 0.8 mg/kg, iv; format: functional, organism-based
[3] = Solubility of compound in Na2HPO4/NaH2PO4 buffer; format: physicochemical
[4] = Solubility of compound in phosphate buffer; format: physicochemical
Rattus norvegicus [5] = experiment: (§1) Reversal of 2,27-dioxa-11,18,36,43-tetraza-8,21,33,46-tetrazoniaundecacyclo[46.2.2.23,6.213,16.223,26.228,31.238,41.18,11.118,21.133,36.143,46]hexahexaconta-1(50),3,5,8(64),9,13(63),14,16(62),19,21(61),23,25,28,30,33(56),34,38,40,44,46(53),48,51,54,57,59,65-hexacosaene tetrachloride induced neuromuscular block in Sprague-Dawley rat assessed as recovery time at 2.5 mg/kg, iv; format: functional
Rattus norvegicus [6] = experiment: as §1, with “10” for “2.5”; format: functional
Rattus norvegicus [7] = experiment: as §1, with “20” for “2.5”; format: functional
Rattus norvegicus [8] = experiment: Neuromuscular blocking in Sprague-Dawley rat assessed as duration time to TOF ratio of 0.25 recovery at 1.6 mg/kg, iv; format: functional
Rattus norvegicus [9] = experiment: Neuromuscular blocking in Sprague-Dawley rat assessed as duration time to TOF ratio of 0.25 recovery at 2.4 mg/kg, iv; format: functional
H9c2 = experiment: Cytotoxicity against rat H9C2 cells at 512 ug/ml incubated for 24 hrs by CCK8 assay; format: toxicity, cell-based; details: h9c2, 24 h, dose 512 µg/ml
L02 = experiment: Cytotoxicity against L02 cells at 512 ug/ml incubated for 24 hrs by CCK8 assay; format: toxicity, cell-based; details: human, l02, 24 h, dose 512 µg/ml
Erythrocyte [10] = experiment: Hemolysis in human RBC; format: toxicity, cell-based
Erythrocyte [11] = experiment: Hemolysis in rat RBC; format: toxicity, cell-based
[12] = Toxicity in Sprague-Dawley rat at 9 mg/kg, iv measured after 1 hr; format: organism-based; details: in vivo
Rattus norvegicus [13] = experiment: as §1, with “0.36” for “2.5”; format: functional
Rattus norvegicus [14] = experiment: as §1, with “50” for “2.5”, “iv after 1 min” for “iv”; format: functional
[15] = Toxicity in ICR mouse assessed as maximal tolerated dose; details: in vivo
[16] = Toxicity in ICR mouse assessed as weight loss at 400 mg/kg, iv measured after 1 day; format: organism-based; details: in vivo, 24 h
[17] = Toxicity in ICR mouse assessed as heart abnormality at 200 to 400 mg/kg after 14 days by H and E staining based optical microscopic analysis; format: organism-based; details: in vivo, 336 h, dose 200-400 mg/kg, time 14 day
[18] = Toxicity in ICR mouse assessed as liver abnormality at 200 to 400 mg/kg after 14 days by H and E staining based optical microscopic analysis; format: organism-based; details: in vivo, 336 h, dose 200-400 mg/kg, time 14 day
[19] = Toxicity in ICR mouse assessed as spleen abnormality at 200 to 400 mg/kg after 14 days by H and E staining based optical microscopic analysis; format: organism-based; details: in vivo, 336 h, dose 200-400 mg/kg, time 14 day
[20] = Toxicity in ICR mouse assessed as lung abnormality at 200 to 400 mg/kg after 14 days by H and E staining based optical microscopic analysis; format: organism-based; details: in vivo, 336 h, dose 200-400 mg/kg, time 14 day
[21] = Toxicity in ICR mouse assessed as kidney abnormality at 200 to 400 mg/kg after 14 days by H and E staining based optical microscopic analysis; format: organism-based; details: in vivo, 336 h, dose 200-400 mg/kg, time 14 day
Rattus norvegicus [22] = experiment: Neuromuscular blocking in Sprague-Dawley rat assessed as duration time to TOF ratio of 0.25 recovery at 3.5 mg/kg, iv; format: functional

- solubility [3]: 58 mg/mL
SMILES: [Cl-].[Cl-].[Cl-].[Cl-].c1cc2ccc1Cc1ccc(cc1)C[n+]1ccn(c1)Cc1ccc(cc1)Cn1cc[n+](c1)Cc1ccc(cc1)Cc1ccc(cc1)C[n+]1ccn(c1)Cc1ccc(cc1)Cn1cc[n+](c1)C2
- ED90 (Rattus norvegicus [1]): 1.16 mg/kg
- Activity (Rattus norvegicus [2]): inactive

- solubility [4]: 400 mg/mL
SMILES: Cc1c(C)c(OCCCC(=O)[O-])c2c(c1OCCCC(=O)[O-])CN1C(=O)N3CN4C(=O)N5CN6C(=O)N7CN8C(=O)N9Cc%10c(c(OCCCC(=O)[O-])c(C)c(C)c%10OCCCC(=O)[O-])CN%10C(=O)N(CN%11C(=O)N(CN%12C(=O)N(CN%13C(=O)N(C2)[C@]1(C)[C@]%133C)[C@@H]4[C@@H]5%12)[C@@H]6[C@@H]7%11)[C@]8(C)[C@]%109C.[Na+].[Na+].[Na+].[Na+]
- Time (Rattus norvegicus [5]): 259 s
- Time (Rattus norvegicus [6]): 16 s

- solubility [4]: 29.5 mg/mL
SMILES: C[C@]12N3Cc4c(c(OCCCS(=O)(=O)[O-])c5ccccc5c4OCCCS(=O)(=O)[O-])CN1C(=O)N1CN4C(=O)N5CN6C(=O)N7CN8C(=O)N9Cc%10c(c(OCCCS(=O)(=O)[O-])c%11ccccc%11c%10OCCCS(=O)(=O)[O-])CN%10C(=O)N(CN%11C(=O)N(CN%12C(=O)N(CN(C3=O)[C@]12C)[C@@H]4[C@H]%125)[C@@H]6[C@H]%117)[C@]8(C)[C@@]9%10C.[Na+].[Na+].[Na+].[Na+]
- Time (Rattus norvegicus [5]): 215 s
- Time (Rattus norvegicus [6]): 18 s

- solubility [4]: 549 mg/mL
SMILES: C[C@]12N3Cc4c(OCCCC(=O)[O-])ccc(OCCCC(=O)[O-])c4CN1C(=O)N1CN4C(=O)N5CN6C(=O)N7CN8C(=O)N9Cc%10c(OCCCC(=O)[O-])ccc(OCCCC(=O)[O-])c%10CN%10C(=O)N(CN%11C(=O)N(CN%12C(=O)N(CN(C3=O)[C@]12C)[C@@H]4[C@H]%125)[C@@H]6[C@H]%117)[C@]8(C)[C@@]9%10C.[Na+].[Na+].[Na+].[Na+]
- Time (Rattus norvegicus [5]): 411 s
- Time (Rattus norvegicus [6]): 18 s

- solubility [3]: 21 mg/mL
SMILES: [Cl-].[Cl-].[Cl-].[Cl-].c1cc2ccc1Cn1cc[n+](c1)Cc1ccc(cc1)-c1ccc(cc1)C[n+]1ccn(c1)Cc1ccc(cc1)Cn1cc[n+](c1)Cc1ccc(cc1)-c1ccc(cc1)C[n+]1ccn(c1)C2
- ED90 (Rattus norvegicus [1]): 1.07 mg/kg
- Activity (Rattus norvegicus [2]): inactive

SMILES: O=C(O)CCSC[C@H]1O[C@@H]2O[C@H]3[C@H](O)[C@@H](O)[C@@H](O[C@H]4[C@H](O)[C@@H](O)[C@@H](O[C@H]5[C@H](O)[C@@H](O)[C@@H](O[C@H]6[C@H](O)[C@@H](O)[C@@H](O[C@H]7[C@H](O)[C@@H](O)[C@@H](O[C@H]8[C@H](O)[C@@H](O)[C@@H](O[C@H]9[C@H](O)[C@@H](O)[C@@H](O[C@H]1[C@H](O)[C@H]2O)O[C@@H]9CSCCC(=O)O)O[C@@H]8CSCCC(=O)O)O[C@@H]7CSCCC(=O)O)O[C@@H]6CSCCC(=O)O)O[C@@H]5CSCCC(=O)O)O[C@@H]4CSCCC(=O)O)O[C@@H]3CSCCC(=O)O
- Time (Rattus norvegicus [7]): 1175 s

- solubility [3]: 78 mg/mL
SMILES: [Cl-].[Cl-].[Cl-].[Cl-].c1cc2ccc1Cn1cc[n+](c1)Cc1ccc(cc1)Oc1ccc(cc1)C[n+]1ccn(c1)Cc1ccc(cc1)Cn1cc[n+](c1)Cc1ccc(cc1)Oc1ccc(cc1)C[n+]1ccn(c1)C2
- ED90 (Rattus norvegicus [1]): 0.8 mg/kg
- Time (Rattus norvegicus [8]): 1785 s
- Time (Rattus norvegicus [9]): 4965 s
- Activity (H9c2): Non-Toxic
- Activity (L02): Non-Toxic
- Activity (Erythrocyte [10]): Non-Toxic
- Activity (Erythrocyte [11]): Non-Toxic
- Activity [12]: Non-Toxic

SMILES: c1ccc(C[n+]2ccn(Cc3ccc(Oc4ccc(Cn5cc[n+](Cc6ccccc6)c5)cc4)cc3)c2)cc1
- Activity (Rattus norvegicus [2]): inactive

SMILES: COc1ccc(Cn2cc[n+](Cc3ccc(C[n+]4ccn(Cc5ccc(OC)cc5)c4)cc3)c2)cc1
- Activity (Rattus norvegicus [2]): inactive

SMILES: CN(C)C(=O)Oc1cccc([N+](C)(C)C)c1 [NEOSTIGMINE]
- Time (Rattus norvegicus [13]): 694 s

SMILES: C[C@]12N3Cc4c(c(OCCCC(=O)[O-])c5ccccc5c4OCCCC(=O)[O-])CN1C(=O)N1CN4C(=O)N5CN6C(=O)N7CN8C(=O)N9Cc%10c(c(OCCCC(=O)[O-])c%11ccccc%11c%10OCCCC(=O)[O-])CN%10C(=O)N(CN%11C(=O)N(CN%12C(=O)N(CN(C3=O)[C@]12C)[C@@H]4[C@H]%125)[C@@H]6[C@H]%117)[C@]8(C)[C@@]9%10C.[Na+].[Na+].[Na+].[Na+]
- solubility [4]: 293 mg/mL
- Time (Rattus norvegicus [5]): 205 s
- Time (Rattus norvegicus [6]): 16 s
- Time (Rattus norvegicus [7]): 17 s
- Activity (H9c2): Non-Toxic
- Activity (L02): Non-Toxic
- Activity (Erythrocyte [10]): Non-Toxic
- Activity (Erythrocyte [11]): Non-Toxic
- Activity (Rattus norvegicus [14]): 100%
- MTD [15]: 550 mg/kg
- Activity [16]: Toxic
- Activity [17]: Non-Toxic
- Activity [18]: Non-Toxic
- Activity [19]: Non-Toxic
- Activity [20]: Non-Toxic
- Activity [21]: Non-Toxic

SMILES: c1cc2ccc1C[n+]1ccc(cc1)-c1cc[n+](cc1)Cc1ccc(cc1)C[n+]1ccc(cc1)-c1cc[n+](cc1)C2
- Activity (Rattus norvegicus [2]): inactive

SMILES: C=CC[N+]1([C@H]2C[C@H]3[C@@H]4CC[C@H]5C[C@H](O)[C@@H](N6CCOCC6)C[C@]5(C)[C@H]4CC[C@]3(C)[C@H]2OC(C)=O)CCCC1 [ROCURONIUM]
- Time (Rattus norvegicus [22]): 497 s

SMILES: c1cc2ccc1Cn1cc[n+](c1)Cc1ccc(cc1)C[n+]1ccn(c1)Cc1ccc(cc1)O2
- Activity (Rattus norvegicus [2]): inactive
